Assay results: US20090054392A1, “NAPHTHYLPYRIMIDINE, NAPHTHYLPYRAZINE AND NAPHTHYLPYRIDAZINE ANALOGS AND THEIR USE AS AGONISTS OF THE WNT-BETA-CATENIN CELLULAR MESSAGING SYSTEM” (Wyeth, priority 2007, published 2009)
pEC50: −log10 of the molar value. Like-named read-outs stand apart in the source and are kept apart here.

Tested on: Dkk1-LRP5-TCF-Luciferase
Assay: Functional Dkk1-LRP5-TCF-Luciferase Assay in U2OS Cells
Conditions: for fold induction at 2 µM: read-out: B = TCF ACTIVITY/DMSO CONTROL Fold induction @ 2.0 uM, 2.0 uM compound; for fold induction at 20 µM: read-out: C = TCF ACTIVITY/DMSO CONTROL Fold induction @ 20.0 uM, 20.0 uM compound; for A = MAX FOLD Induction/DMSO CONTROL: maximum fold induction over DMSO control

In the case of `c1ccc2cc(-c3ccnc(N[C@H]4CCNC4)n3)ccc2c1` [4-(2-naphthyl)-N-[(3S)-pyrrolidin-3-yl]pyrimidin-2-amine], the fold induction at 2 µM (Homo sapiens, U2OS) was 2.84, the fold induction at 20 µM (Homo sapiens, U2OS) was 0.89 and the “A = MAX FOLD Induction/DMSO CONTROL” value was 1.360 fold.

`CN(C)[C@@H]1CCN([C@H]2CCN(c3nccc(-c4ccc5ccccc5c4)n3)C2)C1` [(3R,3′S)-N,N-dimethyl-1′-[4-(2-naphthyl)pyrimidin-2-yl]-1,3′-bipyrrolidin-3-amine] was tested, and the pEC50 (Homo sapiens, U2OS) was 5.97, the fold induction at 2 µM (Homo sapiens, U2OS) was 4.17 and the “A = MAX FOLD Induction/DMSO CONTROL” value was 4.637 fold.

`CN1CCN(C(=O)[C@H]2CCCN2c2nccc(-c3ccc4ccccc4c3)n2)CC1` [2-{(2R)-2-[(4-methylpiperazin-1-yl)carbonyl]pyrrolidin-1-yl}-4-(2-naphthyl)pyrimidine] was tested, and the fold induction at 2 µM (Homo sapiens, U2OS) was 1.01, the fold induction at 20 µM (Homo sapiens, U2OS) was 2.09 and the “A = MAX FOLD Induction/DMSO CONTROL” value was 1.600 fold.

With `NC[C@H]1CC[C@H](c2nccc(-c3ccc4ccccc4c3)n2)CC1` [1-[trans-4-(4-naphthalen-2-ylpyrimidin-2-yl)cyclohexyl]methanamine] the fold induction at 2 µM (Homo sapiens, U2OS) was 3.5.

Compound `O=C(NCCC1CCN(c2nccc(-c3ccc4ccccc4c3)n2)CC1)Nc1ccccc1` [N-(2-{1-[4-(2-naphthyl)pyrimidin-2-yl]piperidin-4-yl}ethyl)-N′-phenylurea] has a fold induction at 2 µM (Homo sapiens, U2OS) of 1 and a fold induction at 20 µM (Homo sapiens, U2OS) of 1.5.

With `c1ccc2cc(-c3ccnc(N4CCCNCC4)n3)ccc2c1` [1-[4-(2-naphthyl)pyrimidin-2-yl]-1,4-diazepane] the fold induction at 2 µM (Homo sapiens, U2OS) was 1.36 and the fold induction at 20 µM (Homo sapiens, U2OS) was 0.85.

In the case of `N[C@@H]1[C@H]2CN(c3nccc(-c4ccc5ccccc5c4)n3)C[C@@H]12`, the pEC50 was 5.40, the “B = TCF ACTIVITY/DMSO CONTROL Fold induction @ 2.0 uM” value (2.0 uM compound) was 1.920 fold and the “A = MAX FOLD Induction/DMSO CONTROL” value was 5.480 fold.

For `O=C(c1ccccc1)N1CCC(Nc2nccc(-c3ccc4ccccc4c3)n2)CC1` [N-(1-benzoylpiperidin-4-yl)-4-(2-naphthyl)pyrimidin-2-amine], the fold induction at 2 µM (Homo sapiens, U2OS) was 1.95, the fold induction at 20 µM (Homo sapiens, U2OS) was 0.01 and the “A = MAX FOLD Induction/DMSO CONTROL” value was 1.490 fold.

In the case of `CC(C)(C)OC(=O)N[C@@H]1CCN(c2nccc(-c3ccc4ccccc4c3)n2)C1` [tert-butyl {(3R)-1-[4-(2-naphthyl)pyrimidin-2-yl]pyrrolidin-3-yl}carbamate], the fold induction at 2 µM (Homo sapiens, U2OS) was 1.95.

Compound `CN(C)C1CCN(c2nccc(-c3ccc4ccccc4c3)n2)C1` (centres unmarked) [N,N-dimethyl-1-[4-(2-naphthyl)pyrimidin-2-yl]pyrrolidin-3-amine] has a pEC50 (Homo sapiens, U2OS) of 5.39, a fold induction at 2 µM (Homo sapiens, U2OS) of 2 and a fold induction at 20 µM (Homo sapiens, U2OS) of 1.91. The “A = MAX FOLD Induction/DMSO CONTROL” value was 5.503 fold.

Work on `O=C(NCCC1CCN(c2nccc(-c3ccc4ccccc4c3)n2)CC1)c1ccccc1` [N-(2-{1-[4-(2-naphthyl)pyrimidin-2-yl]piperidin-4-yl}ethyl)benzamide] yielded a fold induction at 2 µM (Homo sapiens, U2OS) of 0.91 and a fold induction at 20 µM (Homo sapiens, U2OS) of 1.95.

`c1ccc2cc(-c3ccnc(N4CC[C@@H](CN5CCCC5)C4)n3)ccc2c1` [4-(2-naphthyl)-2-[(3S)-3-(pyrrolidin-1-ylmethyl)pyrrolidin-1-yl]pyrimidine] was tested, and the fold induction at 2 µM (Homo sapiens, U2OS) was 1.9, the fold induction at 20 µM (Homo sapiens, U2OS) was 5.18 and the “A = MAX FOLD Induction/DMSO CONTROL” value was 4.050 fold.

`CC(=O)N1CCC(Nc2nccc(-c3ccc4ccccc4c3)n2)CC1` [N-(1-acetylpiperidin-4-yl)-4-(2-naphthyl)pyrimidin-2-amine] was tested, and the pEC50 (Homo sapiens, U2OS) was 5.26, the fold induction at 2 µM (Homo sapiens, U2OS) was 1.09 and the fold induction at 20 µM (Homo sapiens, U2OS) was 2.53. For the same compound, the “A = MAX FOLD Induction/DMSO CONTROL” value was 2.428 fold.

`CN(C)C(=O)NCC1CCN(c2nccc(-c3ccc4ccccc4c3)n2)C1` (centres unmarked) [N,N-dimethyl-N′-({1-[4-(2-naphthyl)pyrimidin-2-yl]pyrrolidin-3-yl}methyl)urea] showed a fold induction at 2 µM (Homo sapiens, U2OS) of 0.84 and a fold induction at 20 µM (Homo sapiens, U2OS) of 1.15.

`NC[C@H]1CCCN(c2nccc(-c3ccc4ccccc4c3)n2)CC1` [1-{(4S)-1-[4-(2-naphthyl)pyrimidin-2-yl]azepan-4-yl}methanamine] was tested, and the pEC50 (Homo sapiens, U2OS) was 5.97, the fold induction at 2 µM (Homo sapiens, U2OS) was 3.86 and the “A = MAX FOLD Induction/DMSO CONTROL” value was 3.640 fold.

`c1ccc2cc(-c3ccnc(NCCN4CCOCC4)n3)ccc2c1` [N-(2-morpholin-4-ylethyl)-4-(2-naphthyl)pyrimidin-2-amine] was tested, and the pEC50 (Homo sapiens, U2OS) was 5.24, the fold induction at 2 µM (Homo sapiens, U2OS) was 2.11 and the fold induction at 20 µM (Homo sapiens, U2OS) was 2.44. The “A = MAX FOLD Induction/DMSO CONTROL” value was 1.853 fold.

For `O=C([C@@H]1CCCN1c1nccc(-c2ccc3ccccc3c2)n1)N1CCCCC1` [4-(2-naphthyl)-2-[(2S)-2-(piperidin-1-ylcarbonyl)pyrrolidin-1-yl]pyrimidine], the fold induction at 2 µM (Homo sapiens, U2OS) was 1.91.

Work on `CC(C)(C)OC(=O)N1CC(CNc2nccc(-c3ccc4ccccc4c3)n2)C1` [tert-butyl 3-({[4-(2-naphthyl)pyrimidin-2-yl]amino}methyl)azetidine-1-carboxylate] yielded a fold induction at 2 µM (Homo sapiens, U2OS) of 1.8 and a fold induction at 20 µM (Homo sapiens, U2OS) of 1.02.

With `CC(=O)N(C)[C@H]1CCN(c2nccc(-c3ccc4ccccc4c3)n2)C1` [N-methyl-N-{(3S)-1-[4-(2-naphthyl)pyrimidin-2-yl]pyrrolidin-3-yl}acetamide] the pEC50 (Homo sapiens, U2OS) was 5.67, the fold induction at 2 µM (Homo sapiens, U2OS) was 2.38 and the fold induction at 20 µM (Homo sapiens, U2OS) was 2.89. The “A = MAX FOLD Induction/DMSO CONTROL” value was 2.533 fold.

With `O=C(N1CC(CNc2nccc(-c3ccc4ccccc4c3)n2)C1)C(F)(F)F` [4-(2-naphthyl)-N-{[1-(trifluoroacetyl)azetidin-3-yl]methyl}pyrimidin-2-amine] the fold induction at 2 µM (Homo sapiens, U2OS) was 1.5.

Work on `COC(=O)NCCC1CCN(c2nccc(-c3ccc4ccccc4c3)n2)CC1` [methyl (2-{1-[4-(2-naphthyl)pyrimidin-2-yl]piperidin-4-yl}ethyl)carbamate] yielded a fold induction at 2 µM (Homo sapiens, U2OS) of 1.39 and a fold induction at 20 µM (Homo sapiens, U2OS) of 0.89.

`FC(F)(F)CN[C@H]1CCN(c2nccc(-c3ccc4ccccc4c3)n2)C1` [(3S)-1-[4-(2-naphthyl)pyrimidin-2-yl]-N-(2,2,2-trifluoroethyl)pyrrolidin-3-amine] gave a fold induction at 2 µM (Homo sapiens, U2OS) of 0.83 and a fold induction at 20 µM (Homo sapiens, U2OS) of 1.38.

For `CC(NC(=O)OC(C)(C)C)C1CCN(c2nccc(-c3ccc4ccccc4c3)n2)CC1` (centres unmarked) [tert-butyl (1-{1-[4-(2-naphthyl)pyrimidin-2-yl]piperidin-4-yl}ethyl)carbamate], the fold induction at 20 µM (Homo sapiens, U2OS) was 0.81.

In the case of `CC(C)NC(=O)N1CCC(Nc2nccc(-c3ccc4ccccc4c3)n2)CC1` [N-isopropyl-4-{[4-(2-naphthyl)pyrimidin-2-yl]amino}piperidine-1-carboxamide], the fold induction at 2 µM (Homo sapiens, U2OS) was 1.07 and the fold induction at 20 µM (Homo sapiens, U2OS) was 1.37.

`NCC1CCN(c2cc(-c3ccc4ccccc4c3)ncn2)CC1` [1-{1-[6-(2-naphthyl)pyrimidin-4-yl]piperidin-4-yl}methanamine] was tested, and the pEC50 (Homo sapiens, U2OS) was 5.80, the fold induction at 2 µM (Homo sapiens, U2OS) was 2.79 and the fold induction at 20 µM (Homo sapiens, U2OS) was 1. For the same compound, the “A = MAX FOLD Induction/DMSO CONTROL” value was 3.226 fold.

For `NCC[C@@H]1CCCN1c1nccc(-c2ccc3ccccc3c2)n1` [2-{(2S)-1-[4-(2-naphthyl)pyrimidin-2-yl]pyrrolidin-2-yl}ethanamine], the fold induction at 2 µM (Homo sapiens, U2OS) was 4.08, the fold induction at 20 µM (Homo sapiens, U2OS) was 0.02 and the “A = MAX FOLD Induction/DMSO CONTROL” value was 2.950 fold.

In the case of `CCNC(=O)N1CC(CNc2nccc(-c3ccc4ccccc4c3)n2)C1` [N-ethyl-3-({[4-(2-naphthyl)pyrimidin-2-yl]amino}methyl)azetidine-1-carboxamide], the fold induction at 2 µM (Homo sapiens, U2OS) was 1.57.

`CCN(CC)C(=O)N[C@@H]1CCN(c2nccc(-c3ccc4ccccc4c3)n2)C1` [N,N-diethyl-N′-{(3R)-1-[4-(2-naphthyl)pyrimidin-2-yl]pyrrolidin-3-yl}urea] was tested, and the fold induction at 2 µM (Homo sapiens, U2OS) was 1.22, the fold induction at 20 µM (Homo sapiens, U2OS) was 1.8 and the “A = MAX FOLD Induction/DMSO CONTROL” value was 1.270 fold.

`OC1CCCN([C@@H]2CCN(c3nccc(-c4ccc5ccccc5c4)n3)C2)C1` (stereo partly drawn) [1-{(3R)-1-[4-(2-naphthyl)pyrimidin-2-yl]pyrrolidin-3-yl}piperidin-3-ol] gave a pEC50 (Homo sapiens, U2OS) of 5.44, a fold induction at 2 µM (Homo sapiens, U2OS) of 2.06 and a fold induction at 20 µM (Homo sapiens, U2OS) of 1.05. The “A = MAX FOLD Induction/DMSO CONTROL” value was 5.120 fold.

`NCC1CCN(c2nccc(-c3ccc4cc(CN5CCCCC5)ccc4c3)n2)CC1` [1-(1-{4-[6-(piperidin-1-ylmethyl)-2-naphthyl]pyrimidin-2-yl}piperidin-4-yl)methanamine] showed a fold induction at 2 µM (Homo sapiens, U2OS) of 1.4.

In the case of `O=C(c1ccccc1)N1CCC(CNc2nccc(-c3ccc4ccccc4c3)n2)CC1` [N-[(1-benzoylpiperidin-4-yl)methyl]-4-(2-naphthyl)pyrimidin-2-amine], the fold induction at 2 µM (Homo sapiens, U2OS) was 1.44 and the fold induction at 20 µM (Homo sapiens, U2OS) was 0.627.

`CN(C[C@H]1CCN(c2nccc(-c3ccc4ccccc4c3)n2)C1)C1CCCCC1` [N-methyl-N-({(3R)-1-[4-(2-naphthyl)pyrimidin-2-yl]pyrrolidin-3-yl}methyl)cyclohexanamine] gave a fold induction at 2 µM (Homo sapiens, U2OS) of 1.27 and a fold induction at 20 µM (Homo sapiens, U2OS) of 1.6.

`c1ccc2cc(-c3ccnc(NCCc4ccncc4)n3)ccc2c1` [4-(2-naphthyl)-N-(2-pyridin-4-ylethyl)pyrimidin-2-amine] showed a pEC50 (Homo sapiens, U2OS) of 6.01, a fold induction at 2 µM (Homo sapiens, U2OS) of 1.96 and a fold induction at 20 µM (Homo sapiens, U2OS) of 0.375. The “A = MAX FOLD Induction/DMSO CONTROL” value was 2.765 fold.

Work on `CC(=O)N1CCC(CNc2nccc(-c3ccc4ccccc4c3)n2)CC1` [N-[(1-acetylpiperidin-4-yl)methyl]-4-(2-naphthyl)pyrimidin-2-amine] yielded a fold induction at 2 µM (Homo sapiens, U2OS) of 1.02 and a fold induction at 20 µM (Homo sapiens, U2OS) of 1.33.

Work on `COC(=O)N(C)CCN(C)[C@@H]1CCN(c2nccc(-c3ccc4ccccc4c3)n2)C1` [methyl methyl[2-(methyl{(3R)-1-[4-(2-naphthyl)pyrimidin-2-yl]pyrrolidin-3-yl}amino)ethyl]carbamate] yielded a fold induction at 20 µM (Homo sapiens, U2OS) of 1.2.

Work on `CC1CCN(c2nccc(-c3ccc4ccccc4c3)n2)CC1` [2-(4-methylpiperidin-1-yl)-4-(2-naphthyl)pyrimidine] yielded a fold induction at 2 µM (Homo sapiens, U2OS) of 1.51.

`c1ccc2cc(-c3ccnc(N4CCC(Cn5ccnc5)C4)n3)ccc2c1` (centres unmarked) [2-[3-(1H-imidazol-1-ylmethyl)pyrrolidin-1-yl]-4-(2-naphthyl)pyrimidine] gave a fold induction at 2 µM (Homo sapiens, U2OS) of 1.28 and a fold induction at 20 µM (Homo sapiens, U2OS) of 0.38.

With `CCN(CC)C(=O)N(C)CCN(C)[C@@H]1CCN(c2nccc(-c3ccc4ccccc4c3)n2)C1` [1,1-diethyl-3-methyl-3-[2-(methyl{(3R)-1-[4-(2-naphthyl)pyrimidin-2-yl]pyrrolidin-3-yl}amino)ethyl]urea] the fold induction at 2 µM (Homo sapiens, U2OS) was 1.93.
